Where two headings read alike, the source gives them in different places.
How the values were obtained:
[1] = test system: RT4: human urinary bladder transitional cell papilloma; assay: Cell based assay, cytotoxicity in RT4 papilloma cells (selectivity); details: Homo sapiens, RT-4; RT4 cells
Method: Commercially available bladder cancer, prostate cancer, lung cancer, breast cancer, blood cancer, pancreatic cancer, colorectal cancer, brain cancer, neuroblastoma, melanoma, liver cancer, cervical carcinoma, ovarian cancer, renal cancer, and papilloma cell lines were each treated with trypsin-EDTA and cultured, followed by being seeded in each well of a 96 well plate. […] The treated cells were additionally cultured for 72 hours, and cell viability was measured by using an ATP detection method (CellTiter-Glo® Luminescent Cell Viability Assay, Promega).

[2] = test system: breast cancer cell lines (e.g. MDA-MB-231, SK-BR-3, MDA-MB-468, HCC1954); assay: Cell based assay, cell viability (CellTiter-Glo), breast cancer cell lines; details: 72 hours, CellTiter-Glo
Method: Commercially available bladder cancer, prostate cancer, lung cancer, breast cancer, blood cancer, pancreatic cancer, colorectal cancer, brain cancer, neuroblastoma, melanoma, liver cancer, cervical carcinoma, ovarian cancer, renal cancer, and papilloma cell lines were each treated with trypsin-EDTA and cultured, followed by being seeded in each well of a 96 well plate. After 24 hours of treatment at constant temperature, the respective cells were treated with the candidate compound so that a final concentration became 0 to 2 μM. The treated cells were additionally cultured for 72 hours, and cell viability was measured by using an ATP detection method (CellTiter-Glo® Luminescent Cell Viability Assay, Promega).

[3] = Breast cancer cell line MDA-MB-231-L/DOX, read-out: IC50, MDA-MB-231-L/DOX
[4] = Homo sapiens, Breast cancer cell line BT-20, read-out: IC50, BT-20
[5] = Homo sapiens, Breast cancer cell line HCC1395, read-out: IC50, HCC1395
[6] = Homo sapiens, Breast cancer cell line HCC1954, read-out: IC50, HCC1954
[7] = Homo sapiens, Breast cancer cell line JIMT-1, read-out: IC50, JIMT-1
[8] = Homo sapiens, Breast cancer cell line MCF7, read-out: IC50, MCF7
[9] = Homo sapiens, Breast cancer cell line MDA-MB-231, read-out: IC50, MDA-MB-231
[10] = Homo sapiens, Breast cancer cell line MDA-MB-468, read-out: IC50, MDA-MB-468
[11] = Homo sapiens, Breast cancer cell line SK-BR-3, read-out: IC50, SK-BR-3

SMILES | IC50 [1] [nM] | IC50 [2, 3] [nM] | IC50 [2, 4] [nM] | IC50 [2, 5] [nM] | IC50 [2, 6] [nM] | IC50 [2, 7] [nM] | IC50 [2, 8] [nM] | IC50 [2, 9] [nM] | IC50 [2, 10] [nM] | IC50 [2, 11] [nM]
CC(=O)c1c([S+](C)[O-])[nH]c2c(Br)ccc(Cl)c2c1=O (stereo not shown) [Compound 1, 3-acetyl-8-bromo-5-chloro-2-(methylsulfinyl)quinolin-4(1H)-one] | > 10000 | > 2000 | > 2000 | > 10000 | > 2000 | > 10000 | > 2000 | > 2000 | > 2000 | 1090
CSc1[nH]c2c(Br)ccc(Cl)c2c(=O)c1C(C)=O [Compound 2, 3-acetyl-8-bromo-5-chloro-2-(methylthio)quinolin-4(1H)-one] | > 10000 | > 2000 | > 2000 | > 10000 | > 2000 | > 10000 | > 2000 | > 2000 | > 2000 | > 2000
CC(=O)c1c(SCc2ccccc2)[nH]c2c(Br)ccc(Cl)c2c1=O [Compound 3, 3-acetyl-2-(benzylthio)-8-bromo-5-chloroquinolin-4(1H)-one] | > 10000 | > 2000 | > 2000 | > 10000 | > 2000 | > 10000 | > 2000 | > 2000 | > 2000 | > 2000
CC(=O)c1c([S+]([O-])Cc2ccccc2)nc2c(Br)ccc(Cl)c2c1O (stereo not shown) [Compound 4] | > 10000 |  | > 2000 | > 10000 | > 2000 | > 10000 | > 2000 | > 2000 | > 2000 | 910
CSc1c(C(C)=O)c(=O)c2c(Cl)ccc(Br)c2n1C [Compound 5, 3-acetyl-8-bromo-5-chloro-1-methyl-2-(methylthio)quinolin-4(1H)-one] | > 10000 | > 2000 | > 2000 | > 10000 | > 2000 | > 10000 | > 2000 | > 2000 | > 2000 | > 2000
CC(=O)c1c([S+](C)[O-])[nH]c2c(Cl)ccc(Cl)c2c1=O (stereo not shown) [Compound 6, 3-acetyl-5,8-dichloro-2-(methylsulfinyl)quinolin-4(1H)-one] | > 10000 | > 2000 | > 2000 | > 10000 | > 2000 | > 10000 | > 2000 | > 2000 | > 2000 | 1120
CSc1c(C(C)=O)c(=O)c2cc(F)ccc2n1C [Compound 7, 3-acetyl-6-fluoro-1-methyl-2-(methylthio)quinolin-4(1H)-one] | > 10000 | > 2000 | > 2000 | > 10000 | > 2000 | > 10000 | > 2000 | > 2000 | > 2000 | > 2000
CSc1[nH]c2ccc(F)cc2c(=O)c1C(C)=O [Compound 8, 1-(6-fluoro-4-hydroxy-2-(methylthio)quinolin-3-yl)ethan-1-one] | > 10000 | > 2000 | > 2000 | > 10000 | > 2000 | > 10000 | > 2000 | > 2000 | > 2000 | > 2000
CC(=O)c1c([S+](C)[O-])n(C(=O)c2ccc(Br)cc2)c2c(Br)ccc(Cl)c2c1=O (stereo not shown) [Compound 9, 3-acetyl-8-bromo-1-(4-bromobenzoyl)-5-chloro-2-(methylsulfinyl)quinolin-4(1H)-one] | > 10000 | > 2000 | > 2000 | > 10000 | > 2000 | > 10000 | > 2000 | > 2000 | > 2000 | 850
CC(=O)c1c(SCc2ccc(Cl)cc2)[nH]c2c(Br)ccc(Cl)c2c1=O [Compound 10, 3-acetyl-8-bromo-5-chloro-2-((4-chlorobenzyl)thio)quinolin-4(1H)-one] | > 10000 | > 2000 | > 2000 | > 10000 | > 2000 | > 10000 | > 2000 | > 2000 | > 2000 | > 2000
CC(=O)c1c([S+]([O-])Cc2ccc(Cl)cc2)[nH]c2c(Br)ccc(Cl)c2c1=O (stereo not shown) [Compound 11, 3-acetyl-8-bromo-5-chloro-2-((4-chlorobenzyl)sulfinyl)quinolin-4(1H)-one] | > 10000 | > 2000 | > 2000 | > 10000 | > 2000 | > 10000 | > 2000 | > 2000 | > 2000 | > 2000
CC(=O)c1c(Sc2ccccc2)[nH]c2c(Br)ccc(Cl)c2c1=O [Compound 12, 3-acetyl-8-bromo-5-chloro-2-(phenylthio)quinolin-4(1H)-one] | > 10000 | > 2000 | > 2000 | > 10000 | > 2000 | > 10000 | > 2000 | > 2000 | > 2000 | > 2000
CC(=O)c1c([S+]([O-])c2ccccc2)[nH]c2c(Br)ccc(Cl)c2c1=O (stereo not shown) [Compound 13, 3-acetyl-8-bromo-5-chloro-2-(phenylsulfinyl)quinolin-4(1H)-one] | > 10000 | > 2000 | > 2000 | > 10000 | > 2000 | > 10000 | > 2000 | > 2000 | > 2000 | > 2000
COc1ccccc1Sc1[nH]c2c(Br)ccc(Cl)c2c(=O)c1C(C)=O [Compound 14, 3-acetyl-8-bromo-5-chloro-2-((2-methoxyphenyl)thio)quinolin-4(1H)-one] | > 10000 | > 2000 | > 2000 | > 10000 | > 2000 | > 10000 | > 2000 | > 2000 | > 2000 | > 2000
COc1ccccc1[S+]([O-])c1[nH]c2c(Br)ccc(Cl)c2c(=O)c1C(C)=O (stereo not shown) [Compound 15, 3-acetyl-8-bromo-5-chloro-2-((2-methoxyphenyl)sulfinyl)quinolin-4(1H)-one] | > 10000 | > 2000 | > 2000 | > 10000 | > 2000 | > 10000 | > 2000 | > 2000 | > 2000 | 1680
CC(=O)c1c(Sc2ccc(Br)cc2)[nH]c2c(Br)ccc(Cl)c2c1=O [Compound 16, 3-acetyl-8-bromo-2-((4-bromophenyl)thio)-5-chloroquinolin-4(1H)-one] | > 10000 | > 2000 | > 2000 | > 10000 | > 2000 | > 10000 | > 2000 | > 2000 | > 2000 | > 2000
CC(=O)c1c([S+]([O-])c2ccc(Br)cc2)[nH]c2c(Br)ccc(Cl)c2c1=O (stereo not shown) [Compound 17, 3-acetyl-8-bromo-2-((4-bromophenyl)sulfinyl)-5-chloroquinolin-4(1H)-one] | > 10000 | > 2000 | > 2000 | > 10000 | > 2000 | > 10000 | > 2000 | > 2000 | > 2000 | > 2000
CSc1c(C(C)=O)c(=O)c2c(Cl)ccc(Br)c2n1C(C)=O [Compound 18, 1,1′-(8-bromo-5-chloro-2-(methylthio)-4-oxoquinoline-1,3(4H)-diyl)bis(ethan-1-one)] | > 10000 | > 2000 | > 2000 | > 10000 | > 2000 | > 10000 | > 2000 | > 2000 | > 2000 | > 2000
CC(=O)c1c([S+](C)[O-])n(C(C)=O)c2c(Br)ccc(Cl)c2c1=O (stereo not shown) [Compound 19, 1,1′-(8-bromo-5-chloro-2-(methylsulfinyl)-4-oxoquinoline-1,3(4H)-diyl)bis(ethan-1-one)] | > 10000 | > 2000 | > 2000 | > 10000 | > 2000 | > 10000 | > 2000 | > 2000 | > 2000 | > 2000
CC(=O)c1c([S+]([O-])Cc2ccccc2)n(C(=O)c2ccc(Br)cc2)c2c(Br)ccc(Cl)c2c1=O (stereo not shown) [Compound 20, 3-acetyl-2-(benzylsulfinyl)-8-bromo-1-(4-bromobenzoyl)-5-chloroquinolin-4(1H)-one] | > 10000 | > 2000 | > 2000 | > 10000 | > 2000 | > 10000 | > 2000 | > 2000 | > 2000 | > 2000

From patent publication US11464770B2, “Anticancer pharmaceutical composition” (NATIONAL CANCER CENTER, priority 2016, dated 2022)
